Assays:
[1] = Rhesus macaque single-dose pharmacokinetics; type: in vivo, rhesus monkeys; details: plasma, mean
Procedure: Two groups of three male rhesus monkeys were fasted overnight before being administered the test article, MGBG, as either a single bolus intravenous dose of 1 mg/kg (Group 1) or as a single oral gavage dose of 10 mg/kg (Group 2). Dose formulation analysis verified administered dose solutions as within 14% of targeted concentrations of 1 and 10 mg/kg for Groups 1 and 2, respectively.
Blood samples were collected into tubes containing lithium heparin from the femoral vein/artery (approximately 1.0 mL) for plasma MGBG concentration measurement from all intravenously dosed animals prior to dosing and at approximately T=0.083 (5 min), 0.25 (15 min), 0.5 (30 min), 1, 2, 4, 8, and 24 hours after dosing. Blood samples for plasma MGBG concentration measurement were collected from all orally dosed animals prior to dosing at approximately T=1, 2, 4, 8, 12, 24, and 36 hours after dosing. Food was also withheld through the first four hours of blood sample collection.
The samples were centrifuged under refrigerated conditions following completion of sample collection at each interval. The resulting plasma was separated and stored frozen at approximately −70° C. until analysis.
PK analysis was performed on the individual plasma concentration-time profiles for MGBG using the WinNonlin non-compartmental approach (linear trapezoidal rule for AUC calculations). Nominal dose values and sampling times were used for calculations. All MGBG plasma concentration measurements reported as BQL (<2.51 ng/mL) were set equal to zero for the purpose of analysis. Following IV and PO administration of MGBG, plasma PK disposition parameters were calculated using the WinNonlin default selection criteria for the selection of the Lambda Z.
Consequently, a model-dependent two-compartmental analysis was used to calculate bioavailability.

[2] = Multi-dose rat pharmacokinetic and tolerability study; type: in vivo, Sprague Dawley rats; details: for AUC0-12 / AUC0-24 / Cmax / Tmax: PO twice daily; for fold increase in mean AUCall compared to Study Day 1: repeat twice-daily PO
Procedure: The purpose of this study was to determine the pharmacokinetic (PK) properties and tolerability of MGBG in rats. Additionally, recovery from any toxic effects was assessed after a seven day non-dosing period.
Three per group of male Sprague Dawley (CD® IGS, Charles River) aged 7-9 weeks and weighing 222.7-252.0 g were administered by oral (PO) gavage, twice daily, at 10, 20, or 30 mg/kg/dose (20, 40, or 60 mg/kg/day) for seven consecutive days. A washout period of seven days followed. Collection of approximately 200 μL of whole blood was collected from the tail vein of all animals in Groups 5, 6, and 7 were bled at six (Day 1), seven (Day 7), or one (Days 9 through 15) time point(s), respectively. Whole blood samples were collected in a lithium heparin microtainer and processed to plasma by centrifugation. Plasma was frozen at −70° C. Pharmacokinetic analyses were performed on the individual animal plasma concentration versus time data for MGBG using WinNonlin (linear trapezoidal rule for AUC calculations). Nominal dose values and sampling times were used for calculations. For Study Day 7, the reported values for MGBG concentrations at time zero were used in the calculations of AUC. Study Day 1 disposition parameters were not reported due to insufficient terminal phase data to adequately characterize these parameters.

[3] = oral gavage 10 mg/kg single dose

`CC(/C=N/NC(=N)N)=N\NC(=N)N` [MGBG, 1,1′ [methylethanediylidene]dinitrilodiguanidine] showed a Clobs ([1]; IV 1 mg/kg single bolus) of 13.7 mL/min/kg, a VSSobs ([1]; IV 1 mg/kg single bolus) of 13.2 L/kg and a Clobs [1, 3] of 6.63 mL/min/kg. The Vd [1, 3] was 13.2 L/kg, the “hematology differences versus control group” value ([2]; 60 mg/kg/day dose group, not thought to be adverse) was “lower reticulocyte count and percentage” and the “gross or microscopic lesions at terminal sacrifice” value ([2]; PO twice daily 7 days, 20-60 mg/kg/day) was “No gross or microscopic lesions”. It also gave an AUC0-12 ([2]; 20 mg/kg/day, Day 7) of 1030 ng·h/mL, an AUC0-24 ([2]; 20 mg/kg/day, Day 7) of 2190 ng·h/mL and a Cmax ([2]; 20 mg/kg/day, Day 7) of 117 ng/mL. It also gave a Tmax ([2]; 20 mg/kg/day, Day 7) of 14 h, an AUC0-12 ([2]; 40 mg/kg/day, Day 7) of 1800 ng·h/mL and an AUC0-24 ([2]; 40 mg/kg/day, Day 7) of 3690 ng·h/mL. It also gave a Cmax ([2]; 40 mg/kg/day, Day 7) of 194 ng/mL, a Tmax ([2]; 40 mg/kg/day, Day 7) of 9.33 h and a Tmax ([2]; 60 mg/kg/day, Day 1) of 3.33 h. The AUC0-12 ([2]; 60 mg/kg/day, Day 7) was 3130 ng·h/mL, the AUC0-24 ([2]; 60 mg/kg/day, Day 7) was 6040 ng·h/mL and the Cmax ([2]; 60 mg/kg/day, Day 7) was 337 ng/mL. For the same molecule, the Tmax ([2]; 60 mg/kg/day, Day 7) was 7.33 h, the “fold increase in mean AUCall compared to Study Day 1” value (from here on “fold increase in mean AUCall”) ([2]; 20 mg/kg/day) was 3.77 fold and the “fold increase in mean AUCall” value ([2]; 40 mg/kg/day) was 4.03 fold. For the same molecule, the “fold increase in mean AUCall” value ([2]; 60 mg/kg/day) was 3.68 fold.
